{
  "source": "patent US20080248024A1",
  "about": "“THERAPEUTIC AGENT FOR CANCER, INFLAMMATION, AND AUTO-IMMUNE DISEASE CONTAINING INHIBITOR OF ZINC FINGER PROTEIN 91” (Korea Research Institute of Bioscience and Biotechnology, priority 2007, published 2008)",
  "key": {"ZFP91 promoter": {"system": "ZFP91 promoter", "test": "ZFP91 promoter luciferase reporter assay (pGL3-ZFP91prom-LUC)", "format": "cell-based, human"}, "ZFP91 [1]": {"system": "ZFP91", "test": "ZFP91 expression in MCF-7 treated with NF-κB activators", "format": "cell-based, human", "conditions": "TNF-α 20 ng/ml, PMA 20 ng/ml, IL1-β 20 ng/ml, H2O2 1 mM, 0, 3, 6, 14, 24 hours", "experimental": "To examine whether ZFP91 expression was regulated by NF-κB, the breast cancer cell line MCF-7 was treated with the NF-κB activators, TNF-α (20 ng/ml), PMA (20 ng/ml), IL1-β (20 ng/ml) and H2O2 (1 mM) for 0, 3, 6, 14, and 24 hours. After 0, 3, 6, 14, and 24 hours from the treatment, poly(A)^+ RNA was extracted, followed by Northern blotting. The probe used for Northern blotting was prepared as follows; TOPO cloning vector inserted with ZFP91 was digested with EcoRI and the insert alone was used after random prime labeling with [α-^32P]dCTP. ZFP91 expressions over the time were investigated. […] The NF-κB activators p65, IKKα, IKKβ, and NIK were expressed in MCF-7 cells. 48 hours later, ZFP91 expressions in the cells were investigated."}, "MDA-MB-435 [2]": {"system": "MDA-MB-435", "test": "MDA-MB-435 xenograft tumor growth in nude mice", "format": "in vivo", "conditions": "15 mg/kg into the abdominal cavity every other day, 12 times", "experimental": "(§1) The human breast cancer cell line MDA-MB-435 was transplanted in the glandular fatty tissues of nude mice (Charles River Laboratory, Wilmington, Mass., USA) at 5 weeks (1×10^6 cells/mouse). 12 days later, the nude mice having tumor were grouped by 8. Kamebakaurin dissolved in 0.5% Tween 80 was administered into the abdominal cavity every other day at the concentrations of 1.5 and 15 mg/kg 12 times in total. The tumor size was measured for 23 days after the transplantation. The tumor size was calculated by “width 2 (square)×[…]/2=tumor volume (mm^3)”."}, "HIF-1α": {"system": "HIF-1α", "test": "HIF-1α expression induced under 1% oxygen in AGS cells expressing ZFP91", "conditions": "AGS cells expressing ZFP91, 1% oxygen"}, "ZFP91 [3]": {"system": "ZFP91", "test": "TNF-α mediated ZFP91 expression in FLAG-ZFP91 expressing AGS cells, Western blotting", "conditions": "pre-treatment 30 minutes with KA 1, 10 ug/ml, celastrol 0.2, 2 ug/ml, parthenolide 0.5, 5 ug/ml, TNF-α 50 ng/ml 3 hours", "description": "TNF-α (50 ng/ml) was treated thereto for 3 hours. Then, cell lysate was obtained, followed by Western blot analysis using a mouse anti-FLAG antibody.\nFLAG-ZFP91 expressing AGS cells were pre-treated with the NF-κB inhibitors, kamebakaurin (KA), celastrol (Cel), parthenolide (PTN), for 30 minutes. TNF-α mediated ZFP91 expression was investigated by Western blotting using anti-ZFP91 antibody."}, "[4]": {"system": "MAGEA4, TNFAIP3 and ZFP91", "test": "Northern blotting of candidate genes regulated by kamebakaurin", "format": "cell-based, human", "conditions": "kamebakaurin 10 μg/ml, 5 hours, MDA-MB-231 cells", "experimental": "MDA-MB-231 cells were treated with DMSO and kamebakaurin (10 μg/ml), followed by culture for 5 hours. The cells were washed with cold PBS three times, and poly(A)^+ RNA was extracted by using FastTrack 2.0 kit (Invitrogen). 2 μg of the extracted poly (A)^+ RNA was eletrohporesed on 1% agarose-formaldehyde gel, which was transferred onto a nylon membrane (Roche, Mannheim, Germany). To investigate the expressions of selected candidate genes, the PCR product was purified by using Wizard PCR PrepsDNA Purification Systems (Promega Corporation, Madison, Wis., U.S.A.) and then used as a probe. Each probe was labeled with [α-^32P]dCTP using Rediprime™ II random prime labeling system (Amersham Biosciences). Non-incorporated ^32P was removed by using spin column (ProbeQuant™ G-50 Micro Columns; Amersham Biosciences). The prepared cDNA was used as a probe for hybridization with the membrane. After the hybridization, the membrane was washed with 2×SSC/0.1% SDS, which was exposed on X-ray film at −80° C. with intensifying screen."}, "MDA-MB-435 [5]": {"system": "MDA-MB-435", "test": "MDA-MB-435 xenograft metastasis to the lung in nude mice", "format": "in vivo", "conditions": "for Frequency (metastatic mice/total mice) / Minimum metastasis number-maximum metastasis number / number of metastasis in lung (median value) / Mean number of metastasis in lung: 35 days after transplantation; for Mean number of metastasis in lung: colonies >diameter 2 mm", "experimental": "as §1\nAfter 35 days from the transplantation, the lung of the mouse was excised and washed with water and fixed in Bouin's solution (SIGMA). The colonies metastasized to the surface of the lung (>diameter 2 mm) were counted under microscope and the mean values are shown in Table 2."}, "[6]": {"system": "PTPN11, SPIN, ECT2, EWSR1, MLLT4, MAGEA4, TNFAIP3 and ZFP91", "test": "RT-PCR of candidate genes regulated by kamebakaurin", "format": "cell-based, human", "conditions": "kamebakaurin 10 μg/ml, 5 hours, MDA-MB-231 cells", "experimental": "A human breast cancer cell line MDA-MB-231 cells was treated with DMSO and kamebakaurin (10 μg/ml) respectively, followed by culture for 5 hours. The cells were washed with cold PBS three times, and then total RNA was extracted by using RNeasy Mini kits (Qiagen, Santa Clarita, Calif., USA) 5 μg of the total RNA was used for the synthesis of cDNA using Invitrogen kit Access RT-PCR Kit (Promega, Madison, Wis., U.S.A.). The ZFP91 specific primer was constructed based on the nucleotide sequence of Genebank (Accession No. NM-053023). Each candidate gene specific primer was constructed based on the informed nucleotide sequences (Table 1). PCR was performed with prepared cDNA as follows: predenaturation at 95° C. for 5 minutes, denaturation at 94° C. for 1 minute, annealing at 50° C.-60° C. for 2 minutes, polymerization at 70° C. for 1 minute, 30 cycles from denaturation to polymerization. The gene-specific PCR products proceeded to electrophoresis on 1% agarose gel, followed by EtBr staining (FIG. 1)."}, "ZFP91 [7]": {"system": "ZFP91", "test": "ZFP91 expression after ZFP91 siRNA, Western blotting", "format": "cell-based, human", "conditions": "various cancer cells", "excerpt": "To investigate the effect of ZFP91 on HIF-1 activation, a human stomach cancer cell line, AGS cells and AGS cells transformed with ZFP91 were transfected with HRE dependent reporter plasmid. ZFP91 siRNA oligomers (SEQ. ID. NO: 1-NO: 4; siRNA sequences corresponding to amino terminal region ccaggtg gcattagtag tgaa, sense: r(AGG UGG CAU UAG UAG UGA A)dTdT, antisense: r(UUC ACU ACU AAU GCC ACC U)dGdG; produced by GIAGEN) were introduced into the above cell lines by using RANiFect Transfection reagent (QIAGEN, Germany).\nParticularly, After 24 hours incubation of 1×10^5 cells/well distributed in a 24-well plate. siRNA oligomer (3.8 ul of SIRNA oligomer: 1 ug) was introduced into the cells with 96.2 ul of medium or EC-R buffer and 6 ul of RNAiFect reagent (Quiagen) and then the plate was kept at room temperature for 10-15 minutes. During the incubation, the medium of 24-well plate was replaced with 300 μl of fresh medium and the mixture of siRNA oligomer and RNAiFect reagent was slowly added and carefully mixed. The reaction mixture was incubated for 24 hours under normoxic condition, and then further cultured for another 24 hours in an incubator in the presence of 1% oxygen. Some of extracts of the cells proceeded to luciferase assay and HIF-1 induced luciferase activity was measured. […]"}, "[8]": {"conditions": "ZFP91 promoter containing both KB1 and KB2"}},
  "note": "“Also recorded” adds a separate entry of the source. Like-named read-outs stand apart in the source and are kept apart here.",
  "data": [
    {"molecule": "[Cl-].[Cl-].[Co+2]", "note": "[CoCl2]", "values": [
      {"measurement": "ZFP91 promoter activity", "setting": "ZFP91 promoter", "result": "significantly increased"}
    ]},
    {"molecule": "OO", "note": "[H2O2]", "values": [
      {"measurement": "ZFP91 promoter activity", "setting": "ZFP91 promoter; stomach cancer cell line transfected with pGL3-ZFP91prom-LUC", "result": "significantly increased"},
      {"measurement": "ZFP91 at mRNA level", "setting": "ZFP91 [1]", "result": "not much increased"},
      {"measurement": "ZFP91 at protein level", "setting": "ZFP91 [1]", "result": "significantly increased time-dependently"}
    ]},
    {"molecule": "CCCCCCCCCCCCCC(=O)O[C@@H]1[C@@H](C)[C@@]2(O)[C@@H](C=C(CO)C[C@]3(O)C(=O)C(C)=C[C@@H]23)[C@@H]2C(C)(C)[C@]12OC(C)=O", "note": "[PMA]", "values": [
      {"measurement": "ZFP91 promoter activity", "setting": "ZFP91 promoter; [8]", "result": "induced"},
      {"measurement": "ZFP91 at mRNA level", "setting": "ZFP91 [1]", "result": "not much increased"},
      {"measurement": "ZFP91 at protein level", "setting": "ZFP91 [1]", "result": "significantly increased time-dependently"}
    ]},
    {"molecule": "C=C1C(=O)[C@@]23[C@H](O)C[C@@H]4C(C)(C)CC[C@H](O)[C@@]4(CO)[C@@H]2CC[C@@H]1[C@H]3O", "note": "[kamebakaurin, Kamebakaurin]", "values": [
      {"measurement": "tumor growth", "setting": "MDA-MB-435 [2]", "result": "significantly inhibited"},
      {"measurement": "HIF-1α expression / accumulation", "setting": "HIF-1α", "result": "suppressed; also recorded: inhibited; also recorded: significantly reduced"},
      {"measurement": "TNF-α mediated ZFP91 expression", "setting": "ZFP91 [3]", "result": "suppressed; also recorded: inhibited"},
      {"measurement": "expression levels of MAGEA4, TNFAIP3 and ZFP91 (Northern blotting) vs KA-non-treated control", "setting": "[4]", "result": "significantly different"},
      {"measurement": "Frequency (metastatic mice/total mice)", "setting": "MDA-MB-435 [5]; 1.5 mg/kg", "result": "6/8"},
      {"measurement": "Minimum metastasis number-maximum metastasis number", "setting": "MDA-MB-435 [5]; 1.5 mg/kg", "result": "(0-6)"},
      {"measurement": "number of metastasis in lung (median value)", "setting": "MDA-MB-435 [5]; 1.5 mg/kg", "result": 3},
      {"measurement": "Mean number of metastasis in lung", "setting": "MDA-MB-435 [5]; 1.5 mg/kg", "result": 3.3},
      {"measurement": "Frequency (metastatic mice/total mice)", "setting": "MDA-MB-435 [5]; 15 mg/kg", "result": "6/8"},
      {"measurement": "Minimum metastasis number-maximum metastasis number", "setting": "MDA-MB-435 [5]; 15 mg/kg", "result": "(0-4)"},
      {"measurement": "number of metastasis in lung (median value)", "setting": "MDA-MB-435 [5]; 15 mg/kg", "result": 2},
      {"measurement": "Mean number of metastasis in lung", "setting": "MDA-MB-435 [5]; 15 mg/kg", "result": 1.8},
      {"measurement": "metastasis to the lung", "setting": "MDA-MB-435 [5]; 15 mg/kg, nude mice, MDA-MB-435", "result": "significantly inhibited"},
      {"measurement": "expression of PTPN11, SPIN, ECT2, EWSR1, MLLT4, MAGEA4, TNFAIP3 and ZFP91 (RT-PCR)", "setting": "[6]", "result": "down-regulated by at least two times"}
    ]},
    {"molecule": "IL-1β: pro-inflammatory cytokine, NF-κB activator", "values": [
      {"measurement": "ZFP91 promoter activity", "setting": "ZFP91 promoter; [8]", "result": "induced"},
      {"measurement": "ZFP91 at mRNA level", "setting": "ZFP91 [1]", "result": "not much increased"},
      {"measurement": "ZFP91 at protein level", "setting": "ZFP91 [1]", "result": "significantly increased time-dependently"}
    ]},
    {"molecule": "TNF-α", "values": [
      {"measurement": "ZFP91 promoter activity", "setting": "ZFP91 promoter; [8]", "result": "induced"},
      {"measurement": "ZFP91 at mRNA level", "setting": "ZFP91 [1]", "result": "not much increased"},
      {"measurement": "ZFP91 at protein level", "setting": "ZFP91 [1]", "result": "significantly increased time-dependently"}
    ]},
    {"molecule": "ZFP91 siRNA 1: siRNA corresponding to the nucleotide sequence 710-730 (NCBI, NM-053023) of ZFP91, SEQ. ID. NO: 1 and NO: 2 (chain 1 GGCAUUAGUAGUGAA; chain 2 UUCACUACUAAUGCCACCU; listed as RNA, chemistry not fully specified)", "values": [
      {"measurement": "ZFP91 expression", "setting": "ZFP91 [7]", "result": "Suppression"}
    ]},
    {"molecule": "ZFP91 siRNA 2: siRNA corresponding to nucleotides 2261-2279 of 3′ untranslated region of ZFP91, SEQ. ID. NO: 3 and NO: 4 (chain 1 GCGGCACACUUAUCUUCAA; chain 2 UUGAAGAUAAGUGUGCCGC; listed as RNA, chemistry not given here)", "values": [
      {"measurement": "ZFP91 expression", "setting": "ZFP91 [7]", "result": "Suppression"}
    ]}
  ]
}
